Source: PubChem BioAssay AID2060511 (Molecular Pharmacology Branch, DTP, NCI, 2025)

Test system: 422866-222-R5-J1-PDC spheroids with HUVEC/MSC, viability
Assay: Anticancer human tumor 422866-222-R5-J1-PDC patient-derived pancreatic adenocarcinoma cell line growth inhibition [GQUAD]
Settings: for IC50: curve of first compound; for viability, T/C: stronger effect = lower value
Method in brief: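 Tumor cells were grown as complex spheroids with HUVEC endothelial cells and mesenchymal stem cells as stroma. G-quadruplex stabilizers were combined with targeted agents over half-log dilutions from near the clinical Cmax, or from 10 microM.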
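Further: spheroids exposed to compounds for seven days before reading.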
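Wherever viability, T/C is given: percent viability relative to DMSO vehicle control taken as 100%.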

Cc1[nH]c2ccccc2c1CCNCc1ccc(/C=C/C(=O)NO)cc1 + Cc1[nH]c2ccc(F)cc2c1-c1nc2c3cccnc3c3ncccc3c2[nH]1
IC50 (second compound 0.0316 µM): > 0.316 µM | IC50 (second compound 0.1 µM): > 0.316 µM | IC50 (second compound 0.316 µM): > 0.316 µM | IC50 (second compound 1 µM): > 0.316 µM | IC50 (second compound 3.16 µM): > 0.316 µM | IC50 (second compound 10 µM): > 0.316 µM | viability, T/C (second compound 0.0316 µM, first compound 0.000999 µM): 113% | viability, T/C (second compound 0.0316 µM, first compound 0.00316 µM): 92.7% | viability, T/C (second compound 0.0316 µM, first compound 0.00999 µM): 110% | viability, T/C (second compound 0.0316 µM, first compound 0.0316 µM): 98.6% | viability, T/C (second compound 0.0316 µM, first compound 0.0999 µM): 101% | viability, T/C (second compound 0.0316 µM, first compound 0.316 µM): 102% | viability, T/C (second compound 0.1 µM, first compound 0.000999 µM): 127% | viability, T/C (second compound 0.1 µM, first compound 0.00316 µM): 108% | viability, T/C (second compound 0.1 µM, first compound 0.00999 µM): 102% | viability, T/C (second compound 0.1 µM, first compound 0.0316 µM): 93% | viability, T/C (second compound 0.1 µM, first compound 0.0999 µM): 111% | viability, T/C (second compound 0.1 µM, first compound 0.316 µM): 94% | viability, T/C (second compound 0.316 µM, first compound 0.000999 µM): 96.6% | viability, T/C (second compound 0.316 µM, first compound 0.00316 µM): 97.2% | viability, T/C (second compound 0.316 µM, first compound 0.00999 µM): 121% | viability, T/C (second compound 0.316 µM, first compound 0.0316 µM): 105% | viability, T/C (second compound 0.316 µM, first compound 0.0999 µM): 115% | viability, T/C (second compound 0.316 µM, first compound 0.316 µM): 98.9% | viability, T/C (second compound 1 µM, first compound 0.000999 µM): 74.5% | viability, T/C (second compound 1 µM, first compound 0.00316 µM): 93.9% | viability, T/C (second compound 1 µM, first compound 0.00999 µM): 114% | viability, T/C (second compound 1 µM, first compound 0.0316 µM): 112% | viability, T/C (second compound 1 µM, first compound 0.0999 µM): 103% | viability, T/C (second compound 1 µM, first compound 0.316 µM): 111% | viability, T/C (second compound 3.16 µM, first compound 0.000999 µM): 64.2% | viability, T/C (second compound 3.16 µM, first compound 0.00316 µM): 73.7% | viability, T/C (second compound 3.16 µM, first compound 0.00999 µM): 68.2% | viability, T/C (second compound 3.16 µM, first compound 0.0316 µM): 73.9% | viability, T/C (second compound 3.16 µM, first compound 0.0999 µM): 75.2% | viability, T/C (second compound 3.16 µM, first compound 0.316 µM): 78.9% | viability, T/C (second compound 10 µM, first compound 0.000999 µM): 52.1% | viability, T/C (second compound 10 µM, first compound 0.00316 µM): 66.2% | viability, T/C (second compound 10 µM, first compound 0.00999 µM): 64.7% | viability, T/C (second compound 10 µM, first compound 0.0316 µM): 65.7% | viability, T/C (second compound 10 µM, first compound 0.0999 µM): 61.1% | viability, T/C (second compound 10 µM, first compound 0.316 µM): 67.6%
